Measurements: patent publication US5922719A, “Coumarin dopamine D4 receptor antagonists” (priority 1997, dated 1999)
Where a name gives a salt, the structure may show the parent alone. Read-outs that look alike come from different tables or passages of the source.

Legend:
[1] = biological target: T1, human recombinant dopamine D4.2 receptor (Homo sapiens, UniProt P21917, DEL265-296); test: [3H]spiperone receptor binding assay, D4.2 (CHO K1 membranes); conditions: [3H]spiperone 0.2 nM, human D4.2, CHO K1 membranes, 60 minutes at 25° C.
T1 construct: expressed in transfected cells
T1 sequence (P21917 with tags, fused parts or gaps DEL265-296): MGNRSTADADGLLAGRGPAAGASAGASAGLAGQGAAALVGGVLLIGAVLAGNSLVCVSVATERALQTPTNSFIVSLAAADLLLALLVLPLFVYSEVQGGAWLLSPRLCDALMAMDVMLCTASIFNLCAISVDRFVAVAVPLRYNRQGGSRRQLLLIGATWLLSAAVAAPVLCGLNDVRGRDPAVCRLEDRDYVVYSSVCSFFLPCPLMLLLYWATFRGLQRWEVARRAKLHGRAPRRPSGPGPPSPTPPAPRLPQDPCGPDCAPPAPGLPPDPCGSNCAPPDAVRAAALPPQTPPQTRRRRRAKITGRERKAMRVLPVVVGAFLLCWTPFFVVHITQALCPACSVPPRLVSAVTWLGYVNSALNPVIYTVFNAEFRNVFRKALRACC
Source text: (§1) A cell line expressing human dopamine D2 (Long form) receptors was purchased from Oregon Health Sciences University, Portland, Ore. The D2 receptor cDNA was subcloned into an expression vector, pRc/CMV. The plasmids were transfected by electroporation into CHO K1 cells. A single stable transfectant, resistant to the antibiotic G418, was isolated and selected for use in the binding studies. For D4 binding, CHO K1 cells stably transfected to express the human recombinant dopamine D4.2 receptor subtype, as described by Shih, et al., "The expression and functional characterization of human dopamine D4.2 receptor in CHO K1 cells," Soc.
(§2) Cells were grown until confluent, after which growth medium was removed and replaced with 0.02% ethylene diamine tetracetate (EDTA) in a phosphate-buffered saline solution (Sigma Chemical Co; St. Louis, Mo.) and scraped from the flasks. The cells were centrifuged at about 1000×g for 10 minutes at 40° C. and then resuspended in TEM buffer (25 mM Tris-HCL, pH 7.4, 5 mM EDTA, and 6 mM MgCl2) for D2 or the D4.2 buffer (50 mM Tris-HCl, pH 7.4, 5 mM EDTA, 1.5 mM CaCl2, 5 mM KCl, and 120 mM NaCl) and homogenized. The membranes were pelleted by centrifugation at 20,000×g at 40° C. for 20 minutes. Then the pellets were resuspended in an appropriate buffer at 1 mL/flask and stored at -70° C. until used in the receptor binding assay.
After 60 minutes incubation at 25° C., the incubations were terminated by rapid filtration through Whatmann GF/B glass fibre filters (soaked for 1 hour in 0.5% polyethylenimine) on a -cell harvester, with three washes of 1 mL ice-cold buffer. […] Nonspecific binding was defined in presence of 1 mM of haloperidol.
(§3) Saturation and competition binding data were analyzed using an iterative nonlinear least-square curve-fitting Ligand program. […] Experimental compounds were made up as stock solutions in dimethyl sulfoxide (DMSO). […] Each observation was carried out in triplicate. To allow these calculations, Kd values were measured for the interaction of various ligands with the receptor. […]

[2] = biological target: human dopamine D2 (Long form) receptor (Homo sapiens, UniProt P14416); test: [3H]spiperone receptor binding assay, D2 (Long form) (CHO K1 membranes)
human dopamine D2 (Long form) receptor, sequence (P14416 whole entry): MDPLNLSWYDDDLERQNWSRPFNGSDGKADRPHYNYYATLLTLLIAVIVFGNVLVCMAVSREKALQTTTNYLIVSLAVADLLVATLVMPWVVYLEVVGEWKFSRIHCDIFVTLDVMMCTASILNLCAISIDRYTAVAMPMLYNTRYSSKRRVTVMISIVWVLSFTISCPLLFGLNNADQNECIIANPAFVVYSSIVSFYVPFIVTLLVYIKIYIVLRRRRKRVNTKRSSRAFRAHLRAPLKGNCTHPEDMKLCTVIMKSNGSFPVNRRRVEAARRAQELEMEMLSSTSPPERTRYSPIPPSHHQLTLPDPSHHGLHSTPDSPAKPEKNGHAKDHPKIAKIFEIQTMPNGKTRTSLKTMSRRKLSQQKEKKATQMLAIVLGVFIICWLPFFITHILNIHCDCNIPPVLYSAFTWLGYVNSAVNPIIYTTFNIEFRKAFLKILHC
Source text: as §1, with “Soc. Neurosci., 1995;21(Part 1):621.” for “Soc.”
as §2, with “CHO K1 cells expressing either human D2 and D4.2 receptors were grown in 162 cm^2 culture flasks in F12 medium (Gibco Laboratories, Grand Island, N.Y.) supplemented with 10% fetal bovine serum (FBS, Hyclone, Logan, UT) in an atmosphere of 5% Co2 /95% air at 37° C. Cells” for “Cells”
After 60 minutes incubation at 25° C., the incubations were terminated by rapid filtration through Whatmann GF/B glass fibre filters (soaked for 1 hour in 0.5% polyethylenimine) on a -cell harvester, with three washes of 1 mL ice-cold buffer. Individual filter disks containing the bound ligand were placed in counting vials with 4 mL of scintillation fluid (Ready Gel, Beckman Instrument Inc, Fullerton, Calif.) and then counted in a Beckman LS-6800 liquid scintillation counter at an efficiency of 45%. Nonspecific binding was defined in presence of 1 mM of haloperidol.
as §3

[3] = [3H]spiperone 0.2 nM, human D2 (Long form), CHO K1 membranes, 60 minutes at 25° C., read-out: D2 Ki

| Compound | Ki ([1]; read-out: D4 Ki) [nM] | Ki [2, 3] [nM] | Ki ([1]; D4 Ki) [nM] | Ki [2] [nM] |
| --- | --- | --- | --- | --- |
| CCCSc1cccc(N2CCN(Cc3ccc4ccc(=O)oc4c3)CC2)c1 [Example 27, 7-[4-(3-Propylsulfanyl-phenyl)-piperazin-1-ylmethyl]-chromen-2-one] | 91 |  |  |  |
| O=c1ccc2ccc(CN3CCN(c4ccccc4Cl)CC3)cc2o1 [Example 5, 7-[4-(2-Chloro-phenyl)-piperazin-1-ylmethyl]-chromen-2-one] | 16.8 | 635 |  |  |
| Cc1cccc(N2CCN(Cc3ccc4ccc(=O)oc4c3)CC2)c1Cl [Example 20, 7-[4-(2-Chloro-3-methyl-phenyl)-piperazin-1-ylmethyl]-chromen-2-one] | 40 | 5880 |  |  |
| O=c1ccc2ccc(CN3CCN(Cc4ccccc4)CC3)cc2o1 [Example 30, 7-(4-Benzyl-piperazin-1-ylmethyl)-chromen-2-one] |  |  | 2660 |  |
| Cc1cccc(N2CCN(Cc3ccc4oc(=O)ccc4c3)CC2)c1C [Example 35, 6-[4-(2,3-Dimethyl-phenyl)-piperazin-1-ylmethyl]-chromen-2-one] | 8.8 | 3250 |  |  |
| O=c1ccc2ccc(CN3CCN(c4cccc(F)c4)CC3)cc2o1 [Example 22, 7-[4-(3-Fluoro-phenyl)-piperazin-1-ylmethyl]-chromen-2-one] | 44 | 4020 |  |  |
| O=c1ccc2ccc(CN3CCN(c4ccc(F)cc4)CC3)cc2o1 [Example 24, 7-[4-(4-Fluoro-phenyl)-piperazin-1-ylmethyl]-chromen-2-one] |  |  | 59 |  |
| O=c1ccc2ccc(CN3CCN(c4ccc(CO)c(F)c4)CC3)cc2o1 [Example 16, 7-[4-(3-Fluoro-4-hydroxymethyl-phenyl)-piperazin-1-ylmethyl]-chromen-2-one] | 29.9 |  |  |  |
| Cc1ccccc1N1CCN(Cc2ccc3ccc(=O)oc3c2)CC1 [Example 4, 7-(4-o-Tolyl-piperazin-1-ylmethyl)-chromen-2-one] |  | 1940 | 16.3 |  |
| Cc1ccc(N2CCN(Cc3ccc4ccc(=O)oc4c3)CC2)cc1Cl [Example 1, 7-[4-(3-Chloro-4-methyl-phenyl)-piperazin-1-ylmethyl]-chromen-2-one] |  |  | 6.9 | > 5880 |
| O=c1ccc2ccc(CN3CCN(c4ccc(CO)c(Cl)c4)CC3)cc2o1 [Example 2, 7-[4-(3-Chloro-4-hydroxymethyl-phenyl)-piperazin-1-ylmethyl]-chromen-2-one] | 11 | 10600 |  |  |
| O=c1ccc2ccc(CN3CCN(c4ncccn4)CC3)cc2o1 [Example 32, 2H-1-Benzopyran-2-one, 7-[[4-(2-pyrimidinyl)-1-piperazinyl]methyl]-, dihydrochloride] | 5000 |  |  |  |
| Cc1ccc(N2CCN(Cc3ccc4oc(=O)ccc4c3)CC2)cc1 [Example 36, 6-(4-p-Tolyl-piperazin-1-ylmethyl)-chromen-2-one] |  | 5830 | 10.9 |  |
| COc1cc(N2CCN(Cc3ccc4ccc(=O)oc4c3)CC2)cc(OC)c1OC [Example 31, 7-[4-(3,4,5-Trimethoxy-phenyl)-piperazin-1-ylmethyl]-chromen-2-one] | > 2000 |  |  |  |
| O=c1ccc2cc(CN3CCN(c4ccc(CO)c(F)c4)CC3)ccc2o1 [Example 40, 6-[4-(3-Fluoro-4-hydroxymethyl-phenyl)-piperazin-1-ylmethyl]-chromen-2-one] | 18 | > 5880 |  |  |
| O=c1ccc2cc(CN3CCN(c4ncccn4)CC3)ccc2o1 [Example 50, 2H-1-Benzopyran-2-one, 6-[[4-(2-pyrimidinyl)-1-piperazinyl]methyl]-] | 163 |  |  |  |
| O=c1ccc2ccc(CN3CCC(c4ccccc4)CC3)cc2o1 [Example 7, 7-(4-Phenyl-piperidin-1-ylmethyl)-chromen-2-one] |  |  | 18 |  |
| Cc1cccc(N2CCN(Cc3ccc4oc(=O)ccc4c3)CC2)c1 [Example 49, 6-(4-m-Tolyl-piperazin-1-ylmethyl)-chromen-2-one] |  |  | 74 |  |
| O=Cc1ccc(N2CCN(Cc3ccc4ccc(=O)oc4c3)CC2)cc1Cl [Example 11, 2-Chloro-4-[4-(2-oxo-2H-chromen-7-ylmethyl)-piperazin-1-yl]-benzaldehyde] | 24.6 | > 5880 |  |  |
| COc1cccc(N2CCN(Cc3ccc4oc(=O)ccc4c3)CC2)c1 [Example 47, 6-[4-(3-Methoxy-phenyl)-piperazin-1-ylmethyl]-chromen-2-one] | 57 | 7120 |  |  |
| O=c1ccc2ccc(CN3CCN(c4ccc5ccccc5c4)CC3)cc2o1 [Example 23, 7-(4-Naphthalen-2-yl-piperazin-1-ylmethyl)-chromen-2-one] | 49.7 |  |  |  |
| Cc1cccc(N2CCN(Cc3ccc4ccc(=O)oc4c3)CC2)c1C [Example 8, 7-[4-(2,3-Dimethyl-phenyl)-piperazin-1-ylmethyl]-chromen-2-one] | 19 | 688 |  |  |
| COc1ccc(N2CCN(Cc3ccc4ccc(=O)oc4c3)CC2)cc1 [Example 26, 7-[4-(4-Methoxy-phenyl)-piperazin-1-ylmethyl]-chromen-2-one] |  |  | 75 |  |
| O=c1ccc2cc(CN3CCN(c4ccc(F)cc4)CC3)ccc2o1 [Example 46, 6-[4-(4-Fluoro-phenyl)-piperazin-1-ylmethyl]-chromen-2-one] | 41 |  |  |  |
| O=c1ccc2cc(CN3CCN(c4cccc(Cl)c4Cl)CC3)ccc2o1 [Example 45] | 41 |  |  |  |
| COc1cc(N2CCN(Cc3ccc4oc(=O)ccc4c3)CC2)cc(OC)c1OC [Example 51, 6-[4-(3,4,5-Trimethoxy-phenyl)-piperazin-1-ylmethyl]-chromen-2-one] | 316 |  |  |  |
| Cc1ccc(C2CCN(Cc3ccc4ccc(=O)oc4c3)CC2)cc1 [Example 12, 7-(4-p-Tolyl-piperidin-1-ylmethyl)-chromen-2-one] | 25.7 |  |  |  |
| Cc1c(Cl)cccc1N1CCN(Cc2ccc3ccc(=O)oc3c2)CC1 [Example 29, 7-[4-(3-Chloro-2-methyl-phenyl)-piperazin-1-ylmethyl]-chromen-2-one] | 128 |  |  |  |
| O=c1ccc2ccc(CN3CCN(c4ccc(Cl)cc4)CC3)cc2o1 [Example 28, 7-[4-(4-Chloro-phenyl)-piperazin-1-ylmethyl]-chromen-2-one] | 93 |  |  |  |
| O=c1ccc2ccc(CN3CCN(c4ccc(CO)c(Br)c4)CC3)cc2o1 [Example 19, 7-[4-(3-Bromo-4-hydroxymethyl-phenyl)-piperazin-1-ylmethyl]-chromen-2-one] | 39.5 |  |  |  |
